Laboratory results taken from patent US8062662B2, “Liposomes containing an entrapped compound in supersaturated solution” (Alza Corporation, priority 2000, dated 2011).

Assay: [1H,15N] HSQC NMR / HPLC: reactivity of cisplatin with histidine and leakage from liposomes
Type: physicochemical
Conditions: 24-hour incubation, 1:1 mole ratio with N-acetyl histidine
Excerpt: Inverse detection experiments detect the protons that are coupled to ^15N and thus provide information about the chemical shifts and coupling constants of the ^15N which depend on the ligands in the first coordination sphere of the Pt and on its oxidation state. […] HSQC and HMQC are two-dimensional inverse detection experiments that have the proton chemical shifts on one axis and the ^15N chemical shifts on the second axis. HSQC and HMQC of ^15N-labeled Pt complexes have been used successfully, to detect micromolar concentrations of Pt complexes. In the studies performed in support of the invention, HSQC was used, since it gives narrower lines and better resolution than HMQC. […] In addition to the tremendous gain in sensitivity, HSQC selectively detects only the protons that are coupled to the ^15N, thus ignoring all the other protons in the solution (from the liposomes) and simplifying the interpretation of the data.
These associations are irreversible, thus making the drug unavailable, once bound.
A similar study was carried out with N-BOC-methionine.
Lipids (HSPC/cholesterol/^2000PEG-DSPE 51:44:5) were dissolved in ethanol. […] Aliquots of the liposomes and of both precipitates were analyzed by heteronuclear single quantum coherence (HSQC) at 30° C. […]
All [^1H, ^15N] […] The 2D data were recorded using Bruker sequence of […] […]

## N.N.[Cl][Pt][Cl] [^15N-cisplatin, cis-^15N-diamminedichloroplatinum(II)]
  cisplatin-histidine species, share of the platinum detected (HPLC): 20-30%
